Assay results taken from patent US8536202B2, “Triazole-substituted anthranilamides as pesticides” (Bayer Cropscience AG, priority 2010, dated 2013).
Like-named read-outs stand apart in the source and are kept apart here.

Tests used:
[1] = tested on: larvae of the mustard beetle (Phaedon cochleariae); test: Phaedon test (PHAECO spray treatment); assay type: in vivo; details: 168 h, read-out: activity in %
Procedure, shortened: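 Compound dissolved in acetone/dimethylformamide with alkylaryl polyglycol ether emulsifier, then diluted with emulsifier-containing water to test concentration for spray treatment of Phaedon cochleariae larvae. Activity scored after 7 days as % larvae killed (100% = all dead, 0% = none).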

[2] = tested on: caterpillars of the armyworm (Spodoptera frugiperda); test: Spodoptera frugiperda test (SPODFR spray treatment); assay type: in vivo; details: 168 h, read-out: activity in %
Procedure, shortened: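 Maize leaf discs sprayed with compound diluted in emulsifier-containing water (acetone/DMF solvent, alkylaryl polyglycol ether emulsifier), dried, then infested with armyworm caterpillars. Kill scored after 7 days as % mortality, 100% = all caterpillars dead, 0% = none.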

[3] = log P determination by HPLC on reversed-phase columns (EEC Directive 79/831 Annex V.A8); assay type: physicochemical; details: pH 2.7
Procedure, shortened: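 log P from reversed-phase LC-MS retention at pH 2.7, 0.1% formic acid water/acetonitrile gradient 10–95% acetonitrile. Calibrated against C3–C16 unbranched alkan-2-ones, interpolating linearly between adjacent alkanones.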

[4] = reversed-phase C18 HPLC column, HPLC on reversed-phase columns (C 18), EEC Directive 79/831 Annex V.A8, read-out: logP
[5] = HPLC on reversed-phase columns (C 18), EEC Directive 79/831 Annex V.A8, read-out: logP

| Structure (SMILES) | pest or weed control at 100 g/ha ([1]; 100 g/ha, after 7 days) [%] | pest or weed control at 100 g/ha ([2]; 100 g/ha, after 7 days) [%] | chromatographic logP [3, 4] | chromatographic logP [3] | pest or weed control at 100 g/ha [1] [%] | pest or weed control at 100 g/ha [2] [%] | chromatographic logP [3, 5] |
| --- | --- | --- | --- | --- | --- | --- | --- |
| O=C(NCC1CC1)c1cc(Cl)cc(Cl)c1NC(=O)c1cc(Cn2ncc(C(F)(C(F)(F)F)C(F)(F)F)n2)nn1-c1ncccc1Cl [Example 277] | 100 | 100 | 4.23 | – | – | – | – |
| CSC[C@H](C)NC(=O)c1cc(Cl)cc(Cl)c1NC(=O)c1cc(Cn2ncc(C(F)(C(F)(F)F)C(F)(F)F)n2)nn1-c1ncccc1Cl [Example 278] | 100 | 100 | 4.38 | – | – | – | – |
| NC(=O)c1cc(Cl)cc(Cl)c1NC(=O)c1cc(Cn2ncc(C(F)(C(F)(F)F)C(F)(F)F)n2)nn1-c1ncccc1Cl [Example 279] | 100 | 100 | – | 3.46 | – | – | – |
| O=C(NC1CC1)c1cc(Cl)cc(Cl)c1NC(=O)c1cc(Cn2ncc(C(F)(C(F)(F)F)C(F)(F)F)n2)nn1-c1ncccc1Cl [Example 280] | 100 | 100 | – | 3.92 | – | – | – |
| Cc1cc(C#N)cc(C(=O)NC2(C3CC3)CC2)c1NC(=O)c1cc(Cn2ncc(C(F)(C(F)(F)F)C(F)(F)F)n2)nn1-c1ncccc1Cl [Example 283] | 100 | 100 | 4.12 | – | – | – | – |
| Cc1cc(C#N)cc(C(=O)NC(C)(C)C)c1NC(=O)c1cc(Cn2ncc(C(F)(F)F)n2)nn1-c1ccccc1Cl [Example 285] | 100 | 100 | 3.93 | – | – | – | – |
| CNC(=O)c1cc(Cl)cc(C)c1NC(=O)c1cc(Cn2ncc(C(F)(F)F)n2)nn1-c1ccccc1Cl [Example 287] | 100 | 100 | 3.45 | – | – | – | – |
| Cc1cc(C#N)cc(C(=O)NC(C)C)c1NC(=O)c1cc(Cn2cc(C(F)(F)F)nn2)nn1-c1ccccc1Cl [Example 290] | 100 | 100 | 3.17 | – | – | – | – |
| CNC(=O)c1cc(C#N)cc(C)c1NC(=O)c1cc(Cn2cc(C(F)(C(F)(F)F)C(F)(F)F)nn2)nn1-c1ccccc1Cl [Example 295] | 100 | 100 | 3.46 | – | – | – | – |
| Cc1cc(C#N)cc(C(=O)NC2CC2)c1NC(=O)c1cc(Cn2cc(C(F)(F)F)nn2)nn1-c1ccccc1Cl [Example 296] | 100 | 100 | 2.93 | – | – | – | – |
| CNC(=O)c1cc(C#N)cc(C)c1NC(=O)c1cc(Cn2ncc(C(F)(C(F)(F)F)C(F)(F)F)n2)nn1-c1ccccc1Cl [Example 297] | 100 | 100 | 3.88 | – | – | – | – |
| Cc1cc(I)cc(C(=O)NC2CC2)c1NC(=O)c1cc(Cn2cc(C(F)(F)C(F)(F)F)nn2)nn1-c1ncccc1Cl [Example 310] | 100 | 100 | – | 3.49 | – | – | – |
| CCNC(=O)c1cc(I)cc(C)c1NC(=O)c1cc(Cn2cc(C(F)(F)C(F)(F)F)nn2)nn1-c1ncccc1Cl [Example 311] | 100 | 100 | – | 3.49 | – | – | – |
| Cc1cc(I)cc(C(=O)NC(C)C)c1NC(=O)c1cc(Cn2cc(C(F)(F)C(F)(F)C(F)(F)F)nn2)nn1-c1ncccc1Cl [Example 322] | – | – | – | – | 100 | 100 | 4.07 |
| Cc1cc(I)cc(C(=O)NC2CC2)c1NC(=O)c1cc(Cn2cc(C(F)(F)C(F)(F)C(F)(F)F)nn2)nn1-c1ncccc1Cl [Example 323] | – | – | – | – | 100 | 100 | 3.82 |
| Cc1cc(I)cc(C(=O)NCC2CC2)c1NC(=O)c1cc(Cn2cc(C(F)(F)C(F)(F)C(F)(F)F)nn2)nn1-c1ncccc1Cl [Example 333] | – | – | – | – | 100 | 100 | 4.13 |
| Cc1cc(I)cc(C(=O)NC(C)(C)C)c1NC(=O)c1cc(Cn2cc(C(F)(F)C(F)(F)C(F)(F)F)nn2)nn1-c1ncccc1Cl [Example 334] | – | – | – | – | 100 | 100 | 4.42 |
| CCNC(=O)c1cc(I)cc(C)c1NC(=O)c1cc(Cn2cc(C(F)(F)C(F)(F)C(F)(F)F)nn2)nn1-c1ncccc1Cl [Example 335] | – | – | – | – | 100 | 100 | 3.83 |
| Cc1cc(I)cc(C(=O)NC(C)C2CC2)c1NC(=O)c1cc(Cn2cc(C(F)(F)C(F)(F)C(F)(F)F)nn2)nn1-c1ncccc1Cl (stereo not drawn) [Example 336] | – | – | – | – | 100 | 100 | 4.36 |
